Molecular target: T1, FicD^L258D (Homo sapiens, UniProt Q9BVA6, L258D)
T1 construct: soluble ER luminal domain (residues 105 to 458) of wild-type human FicD and three mutants; 6xHis-Sumo (N, cleaved yes); made in house; host or cells: Rosetta(DE3) E. coli
T1 sequence (Q9BVA6 105-458 L258D): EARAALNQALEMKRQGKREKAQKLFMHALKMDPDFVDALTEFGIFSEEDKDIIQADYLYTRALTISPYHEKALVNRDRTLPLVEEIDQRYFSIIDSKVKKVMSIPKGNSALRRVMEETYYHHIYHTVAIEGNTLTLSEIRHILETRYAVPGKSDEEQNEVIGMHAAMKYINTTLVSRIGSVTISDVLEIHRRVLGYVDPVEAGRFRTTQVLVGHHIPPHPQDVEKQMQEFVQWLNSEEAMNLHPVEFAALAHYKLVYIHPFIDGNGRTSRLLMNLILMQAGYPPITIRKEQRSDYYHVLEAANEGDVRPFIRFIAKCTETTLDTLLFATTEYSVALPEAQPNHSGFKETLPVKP
Assay: MIDAS metabolite screen, FicD^L258D
Assay type: binding
Conditions: cutoff Q < 0.05 and |Log2 corrected fold change| > 2, metabolites 5 µM

Row | SMILES | MIDAS protein-metabolite interaction (enrichment/depletion)
1 | CC(C)=CCC/C(C)=C/COP(=O)(O)OP(=O)(O)O [GPP, geranyl-pyrophosphate] | significantly enriched
2 | CC(C)=CCC/C(C)=C/CC/C(C)=C/COP(=O)(O)OP(=O)(O)O [FPP, farnesyl-pyrophosphate] | significantly enriched
